# Measurements from patent US20110086899A1, “PHARMACEUTICAL COMPOSITIONS FOR ORAL ADMINISTRATION” (XENON PHARMACEUTICALS INC., priority 2009, published 2011).
# “Also recorded” adds a separate entry of the source.
# Assays:
# [1] = solubility in excipients and excipient combinations; assay type: physicochemical
# Protocol: Determination of the solubility of a spiro-oxindole compound of the invention, as a racemate, a single enantiomer, or a non-racemic mixture of enantiomers, or a pharmaceutically acceptable salt thereof, in each of the above excipients was carried out by weighing a specified quantity of the excipient into a scintillation vial and then adding a weighed quantity of the spiro-oxindole compound of the invention, as a racemate, a single enantiomer, or a non-racemic mixture of enantiomers, or a pharmaceutically acceptable salt thereof. Heating and vortexing was then applied as required to dissolve the spiro-oxindole compound of the invention, as a racemate, a single enantiomer, or a non-racemic mixture of enantiomers, or a pharmaceutically acceptable salt thereof. If the initial quantity of the spiro-oxindole compound of the invention, as a racemate, a single enantiomer, or a non-racemic mixture of enantiomers, or a pharmaceutically acceptable salt thereof, dissolved, then an additional amount of the spiro-oxindole compound of the invention, as a racemate, a single enantiomer, or a non-racemic mixture of enantiomers, or a pharmaceutically acceptable salt thereof, was added to determine the maximum solubility.
# The rationale for preparing each combination is given as well: […]
# sodium channel = assay: guanidine influx assay (WO 06/110917, BIOLOGICAL EXAMPLE 1); assay type: cell-based; details: inhibition of ion flux through a sodium channel
# Protocol: Typically, a successful therapeutic effective amount of an pharmaceutical composition of the invention for oral administration to a mammal, in need thereof, will meet some or all of the following criteria. Animal model efficacy of a spiro-oxindole compound of the invention, as a racemate, a single enantiomer, or a non-racemic mixture of enantiomers, or a pharmaceutically acceptable salt thereof, should be less than about 0.1 μg/Kg to about 100 mg/Kg body weight and the target human dose of a spiro-oxindole compound of the invention, as a racemate, a single enantiomer, or a non-racemic mixture of enantiomers, or a pharmaceutically acceptable salt thereof, should be between 0.1 μg/Kg to about 100 mg/Kg body weight, although doses outside of this range may be acceptable (“mg/Kg” means milligrams of compound per kilogram of body mass of the subject to whom it is being administered). The therapeutic index (or ratio of toxic dose to therapeutic dose) of a spiro-oxindole compound of the invention, as a racemate, a single enantiomer, or a non-racemic mixture of enantiomers, or a pharmaceutically acceptable salt thereof, should be greater than 100. […]
# [2] = in vivo pharmacokinetic profile after oral administration to dogs; parameters: species or system male beagle dogs; details: fasted dogs
# Protocol: The in vivo pharmacokinetic profiles of the pharmaceutical compositions of the invention were determined as follows. Pharmaceutical compositions of the invention were orally administered to dogs in a controlled experiment to determine pharmacokinetic profile of a spiro-oxindole compound of the invention in a pharmaceutical composition of the invention.
# Non-naïve male beagle dogs (Marshall Farms USA, Inc.) ranging in body weights from 6-10 Kg were used for the study. Each dog was fasted overnight before dosing. The fasted dogs (n=3/group) were given a single dose of 100 mg capsule (as setout in Table 4 above) or 400 mg (4×100 mg capsule) by oral administration (PO). Food was returned 4-hours post-dose. Blood samples were collected via jugular venipuncture at various timepoints ([…], 1, 2, 4, 6, 8, 24 and 48 hrs) after administration and plasma concentration was determined by liquid chromatography mass spectroscopy (LC-MS/MS). Concentrations of the active ingredient in the plasma samples at each timepoint were determined using standard methods known to one skilled in the art. The active ingredient concentrations were plotted against time (time in hours versus concentration in ng/mL) and the area under the curve extrapolated to infinity (AUCinf), the Cmax (peak plasma concentration of the active ingredient) and Tmax (time after administration of the pharmaceutical composition when peak plasma concentration level occurs) were calculated.
# [3] = biological target: Nav1.7 voltage-gated sodium channel (Homo sapiens, UniProt Q15858); assay: inhibition of Nav1.7
# Sequence of Nav1.7 voltage-gated sodium channel (Q15858 whole entry): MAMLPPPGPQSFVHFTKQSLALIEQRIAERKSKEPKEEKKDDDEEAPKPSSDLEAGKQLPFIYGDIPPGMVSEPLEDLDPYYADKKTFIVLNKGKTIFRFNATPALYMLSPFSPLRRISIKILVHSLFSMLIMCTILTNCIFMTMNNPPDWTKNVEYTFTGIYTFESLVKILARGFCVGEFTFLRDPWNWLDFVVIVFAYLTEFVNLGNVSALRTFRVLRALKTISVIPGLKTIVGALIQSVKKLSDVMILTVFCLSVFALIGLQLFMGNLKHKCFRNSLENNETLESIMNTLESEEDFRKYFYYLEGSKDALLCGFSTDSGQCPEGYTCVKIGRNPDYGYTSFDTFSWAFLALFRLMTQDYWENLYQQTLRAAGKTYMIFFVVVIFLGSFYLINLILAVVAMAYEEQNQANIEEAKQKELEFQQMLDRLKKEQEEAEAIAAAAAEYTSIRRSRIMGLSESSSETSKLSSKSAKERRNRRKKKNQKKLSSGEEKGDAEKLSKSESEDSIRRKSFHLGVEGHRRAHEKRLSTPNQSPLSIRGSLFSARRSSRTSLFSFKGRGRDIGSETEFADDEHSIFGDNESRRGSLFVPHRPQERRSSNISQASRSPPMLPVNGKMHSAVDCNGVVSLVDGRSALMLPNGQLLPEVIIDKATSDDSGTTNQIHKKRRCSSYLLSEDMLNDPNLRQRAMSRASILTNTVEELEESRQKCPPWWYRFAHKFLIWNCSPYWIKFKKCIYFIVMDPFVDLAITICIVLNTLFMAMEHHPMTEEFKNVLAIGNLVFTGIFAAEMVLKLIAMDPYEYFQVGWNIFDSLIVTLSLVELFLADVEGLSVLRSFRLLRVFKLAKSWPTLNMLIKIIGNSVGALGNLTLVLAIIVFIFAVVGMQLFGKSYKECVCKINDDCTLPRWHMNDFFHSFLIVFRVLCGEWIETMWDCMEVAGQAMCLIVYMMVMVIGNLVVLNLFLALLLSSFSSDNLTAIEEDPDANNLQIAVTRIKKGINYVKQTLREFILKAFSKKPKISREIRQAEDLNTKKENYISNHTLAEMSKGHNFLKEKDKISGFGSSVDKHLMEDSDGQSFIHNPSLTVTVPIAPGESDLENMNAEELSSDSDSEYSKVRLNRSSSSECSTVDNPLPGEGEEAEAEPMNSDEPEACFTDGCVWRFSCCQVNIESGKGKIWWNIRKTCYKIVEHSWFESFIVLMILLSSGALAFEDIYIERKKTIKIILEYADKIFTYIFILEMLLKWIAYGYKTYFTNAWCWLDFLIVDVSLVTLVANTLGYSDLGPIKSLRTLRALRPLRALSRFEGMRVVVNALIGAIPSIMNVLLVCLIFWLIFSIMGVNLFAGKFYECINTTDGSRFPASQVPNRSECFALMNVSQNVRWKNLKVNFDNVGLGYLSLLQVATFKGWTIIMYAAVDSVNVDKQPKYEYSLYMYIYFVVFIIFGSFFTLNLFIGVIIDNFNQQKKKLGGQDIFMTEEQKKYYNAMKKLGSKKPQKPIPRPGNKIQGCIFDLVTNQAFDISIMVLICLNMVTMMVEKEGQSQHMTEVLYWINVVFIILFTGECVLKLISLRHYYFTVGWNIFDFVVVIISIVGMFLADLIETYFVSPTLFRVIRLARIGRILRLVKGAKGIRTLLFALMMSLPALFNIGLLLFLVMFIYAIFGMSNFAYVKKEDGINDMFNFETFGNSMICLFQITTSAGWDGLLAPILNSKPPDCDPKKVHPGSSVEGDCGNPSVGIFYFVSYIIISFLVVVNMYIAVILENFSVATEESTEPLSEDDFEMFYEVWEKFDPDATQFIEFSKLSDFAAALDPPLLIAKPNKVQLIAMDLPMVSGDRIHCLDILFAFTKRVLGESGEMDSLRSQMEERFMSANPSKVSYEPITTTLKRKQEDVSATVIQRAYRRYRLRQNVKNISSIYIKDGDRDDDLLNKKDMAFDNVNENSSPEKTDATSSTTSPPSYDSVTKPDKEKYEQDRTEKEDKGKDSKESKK
# [4] = tested on: pain following extraction of impacted third molar teeth; assay: clinical trial for treatment of dental pain; assay type: in vivo, human; details: single 500 mg oral dose of composition comprising COMPOUND B
# Protocol: The purpose of this clinical trial was to compare the safety and efficacy (onset, duration of relief, and overall efficacy) of a single 500 mg dose of a pharmaceutical composition of the invention comprising COMPOUND B versus a placebo dose for relief of pain following extraction of impacted third molar teeth. Sixty-one subjects were enrolled in the study. The mean age for the subjects was 20.4 years, and all subjects were male. The majority of subjects were Caucasians (95.1%). The severity and relief of the pain was measured using an 11-point Pain Intensity Numerical Rating Scale (graded from 0=no pain at all to 10=worst pain imaginable) (PINRS) and a 5-point Categorical Pain Relief Scale (REL). Subjects completed the PINRS after surgery, but before the administration of (S)-enantiomer of the invention. Efficacy variables were derived from the REL and PINRS scores and included total pain relief (TOTPAR), pain intensity difference (PID), and summed pain intensity difference (SPID) and evaluated at time points of 4, 6, 8, and 12 hours after administration of the pharmaceutical composition of the invention comprising COMPOUND B.
Compound,solubility in Labrafac ([1]; excipient Labrafac),solubility in Labrasol ([1]; excipient Labrasol),solubility in PEG 400 ([1]; excipient PEG 400),solution in the excipient combinations of Table 2 ([1]; upon mixing and heating to 70-80° C.),IC50 (sodium channel) [nM],"solubility in caprylic/capric glycerides such as Imwitor 742 ([1]; excipient Imwitor 742, compared with other excipients)",absorption following PO administration ([2]; single PO dose 100 mg or 400 mg),"Tmax ([2]; male, beagle, dog, plasma, single PO dose 100 mg capsule (Table 4) or 400 mg (4×100 mg capsule)) [h]","Cmax ([2]; male, beagle, dog, single PO dose 100 mg capsule (Table 4) or 400 mg (4×100 mg capsule), plasma) [ng/mL]",inhibition of Nav1.7 [3],onset of action [4],pain relief compared to placebo [4],statistical significance from the placebo [4],"primary and all secondary endpoints (TOTPAR, PID, SPID) versus placebo ([4]; 4, 6, 8 and 12 hours)"
"O=C1N(Cc2ccc(C(F)(F)F)o2)c2ccccc2C12COc1cc3c(cc12)OCO3 (racemic) [COMPOUND A, 1′-{[5-(trifluoromethyl)-2-furyl]methyl}spiro[furo[2,3-f][1,3]benzodioxole-7,3′-indol]-2′(1′H)-one]",readily soluble in Labrafac ®. The,"best excipient; also recorded: soluble in Labrasol ®, the excipient",readily soluble in PEG 400. PEG,suitable for producing a solution,< 1000,,,,,,,,,
"O=C1N(Cc2ccc(C(F)(F)F)o2)c2ccccc2[C@]12COc1cc3c(cc12)OCO3 [COMPOUND B, (S)-1′-{[5-(trifluoromethyl)-2-furyl]methyl}spiro[furo[2,3-f][1,3]benzodioxole-7,3′-indol]-2′(1′-H)-one]",,,,,,less than other excipients,readily absorbed,1 to 3,1300 to 1600,has been shown to inhibit,slow onset of action,higher,not achieved,consistent analgesic trend
